US9944607B2, “Thiohydantoin derivatives and uses thereof” (Whitehead Institute for Biomedical Research, priority 2012, dated 2018)
Converted amounts (≈) assume the structure as drawn. Read-outs that look alike come from different tables or passages of the source.

Experiments:
Candida albicans CaCi-2 = assay: Primary assay: C. albicans CaCi-2 growth inhibition (Alamar Blue); assay type: cell-based; settings: for Drop in activity / potency relative to hit CID3889161: C. albicans growth inhibition; for Activity against C. albicans: CaCi-2, or both test strains (CaCi-2, CaCi-17) where the sentence names none; for Growth Inhibition Activity, IC50 (μM), C. albicans (n = 3) CaCi-2 / IC50: 48 hours, tested up to 26 μM, n = 3; for IC50: read-out: Growth Inhibition Activity, IC50 (μM), C. albicans (n = 3) CaCi-2
Candida albicans CaCi-17 = assay: Primary assay: C. albicans CaCi-17 growth inhibition (Alamar Blue); assay type: cell-based; settings: for Growth Inhibition Activity, IC50 (μM), C. albicans (n = 3) CaCi-17 / IC50: 48 hours, tested up to 26 μM, n = 3; for IC50: read-out: Growth Inhibition Activity, IC50 (μM), C. albicans (n = 3) CaCi-17
[1] = test system: NIH-3T3 mammalian fibroblasts; assay: Counterscreen mammalian cell toxicity assay (Alamar Blue); assay type: cell-based, murine; settings: n = 1, 48 hours, tested up to 26 μM; for IC50: read-out: Growth Inhibition Activity, IC50 (μM), 3T3 Fibroblasts (n = 1)
Description: Quiescent murine fibroblasts were subjected to incubation with compounds of interest for 48 hours. Subsequent cell viability was determined via measuring Alamar Blue fluorescence.
Procedures • After overnight culture, pin compounds into wells at 100 nL/well using the CyBio CyBi-Well pinning instrument. • Return the plates to the tissue culture incubator and incubate the culture for an additional 48 hours at 37° C. under 5% CO2. • At the completion of this incubation, add Alamar Blue solution diluted 1:40 in PBS to each well (10 μL/well) to achieve a final dilution of 1:200. • Incubate the plates for an additional 2-3 hours at 37° C. under 5% CO2. • Read the Relative Fluorescence Intensity (RFU) of wells on a standard plate reader as a measure of relative cell growth. […] 4.4.

[2] = Solubility in PBS pH 7.4 with 1% DMSO; settings: for solubility at 24 h: phosphate buffered saline with 1% DMSO, pH 7.4, aqueous buffer, kinetic from dmso stock
Description: Solubility was determined in phosphate buffered saline (PBS) pH 7.4 with 1% DMSO. Each compound was prepared in duplicate at 100 μM in both 100% DMSO and PBS with 1% DMSO. Compounds were allowed to equilibrate at room temperature with a 250 rpm orbital shake for 24 hours. After equilibration, samples were analyzed by UPLC-MS (Waters, Milford, Mass.) with compounds detected by SIR detection on a single quadrupole mass spectrometer. The DMSO samples were used to create a two-point calibration curve to which the response in PBS was fit.

[3] = Table 4, PBS pH 7.4 with 1% DMSO, 24 hours, room temperature

CCOC(=O)N1C(=O)C2(CCOCC2)N(c2ccc(C)cc2)C1=S [CID 56604818]
Drop in activity / potency relative to hit CID3889161 (Candida albicans CaCi-2): 100 fold

CCOC(=O)N1C(=S)N(c2ccc(C)cc2)C(=O)C12CCCCC2 [CID 56604852]
Activity against C. albicans (Candida albicans CaCi-2): inactive

Cc1ccc(N2C(=S)N(C(=O)Oc3ccccc3)C(=O)C23CCCCC3)cc1 [CID 56604875]
Activity against C. albicans (Candida albicans CaCi-2): no activity | Activity against C. albicans CaCi-17 as worded in the text (Candida albicans CaCi-17): no activity

CCOC(=O)N1C(=O)C2(CCCCC2)N(Cc2ccccc2)C1=S [CID 56604878]
Drop in activity / potency relative to hit CID3889161 (Candida albicans CaCi-2): 10 fold

Cc1ccc(N2C(=S)NC(=O)C23CCCCC3)cc1 [CID 56604892]
Activity against C. albicans (Candida albicans CaCi-2): failed to inhibit C. albicans growth

Cc1ccc(N2CC(=O)NC2=O)cc1 [compound 759335]
Growth Inhibition Activity, IC50 (μM), C. albicans (n = 3) CaCi-2 (Candida albicans CaCi-2; Table 7): inactive | Growth Inhibition Activity, IC50 (μM), C. albicans (n = 3) CaCi-17 (Candida albicans CaCi-17; Table 7): inactive | Growth Inhibition Activity, IC50 (μM), 3T3 Fibroblasts (n = 1) ([1]; Table 7): Inactive | solubility at 24 h [2]: > 100 µM

O=C1NC(=S)N(c2ccccc2)C12CCCCC2 [compound 823120]
Growth Inhibition Activity, IC50 (μM), C. albicans (n = 3) CaCi-2 (Candida albicans CaCi-2; Table 7): inactive | Growth Inhibition Activity, IC50 (μM), C. albicans (n = 3) CaCi-17 (Candida albicans CaCi-17; Table 7): inactive | Growth Inhibition Activity, IC50 (μM), 3T3 Fibroblasts (n = 1) ([1]; Table 7): Inactive | solubility at 24 h [2]: 79 µM (≈ 20.6 µg/mL)

COC(=O)N1C(=O)C2(CCCCC2)N(c2ccc(C)cc2)C1=S [compound 3951437]
IC50 (Candida albicans CaCi-2; Table 3): 1.9 µM | IC50 (Candida albicans CaCi-17; Table 3): 17.1 µM | Growth Inhibition Activity, IC50 (μM), 3T3 Fibroblasts (n = 1) ([1]; Table 3): Inactive

O=C1NC(=S)N(Cc2ccccc2)C12CCCCC2 [compound 14297244]
Growth Inhibition Activity, IC50 (μM), C. albicans (n = 3) CaCi-2 (Candida albicans CaCi-2; Table 7): inactive | Growth Inhibition Activity, IC50 (μM), C. albicans (n = 3) CaCi-17 (Candida albicans CaCi-17; Table 7): inactive | Growth Inhibition Activity, IC50 (μM), 3T3 Fibroblasts (n = 1) ([1]; Table 7): Inactive | solubility at 24 h [2]: > 100 µM

CCOC(=O)N1C(=O)C2(CCCCC2)N(c2ccccc2C)C1=S [compound 24052146]
IC50 (Candida albicans CaCi-2; Table 4): 1.2 µM | IC50 (Candida albicans CaCi-17; Table 4): 23.9 µM | Growth Inhibition Activity, IC50 (μM), 3T3 Fibroblasts (n = 1) ([1]; Table 4): Inactive | PBS Solubility [2, 3]: 18 µM

Cc1ccc(N2C(=S)NC(=O)C23CCC3)cc1 [compound 56604811]
Growth Inhibition Activity, IC50 (μM), C. albicans (n = 3) CaCi-2 (Candida albicans CaCi-2; Table 7): inactive | Growth Inhibition Activity, IC50 (μM), C. albicans (n = 3) CaCi-17 (Candida albicans CaCi-17; Table 7): inactive | Growth Inhibition Activity, IC50 (μM), 3T3 Fibroblasts (n = 1) ([1]; Table 7): Inactive | solubility at 24 h [2]: 62 µM (≈ 15.3 µg/mL)

CCOC(=O)N1C(=O)C2(CCCCC2)N(c2ccc(C(F)(F)F)cc2)C1=S [compound 56604813]
IC50 (Candida albicans CaCi-2; Table 4): 0.8 µM | IC50 (Candida albicans CaCi-17; Table 4): 16.2 µM | IC50 ([1]; Table 4): 12.5 µM | PBS Solubility ([2]; pH 7.4): <1.0 µM

CCCCN1C(=O)C2(CCCCC2)N(c2ccc(C)cc2)C1=S [compound 56604814]
Growth Inhibition Activity, IC50 (μM), C. albicans (n = 3) CaCi-2 (Candida albicans CaCi-2; Table 3): inactive | Growth Inhibition Activity, IC50 (μM), C. albicans (n = 3) CaCi-17 (Candida albicans CaCi-17; Table 3): inactive | IC50 ([1]; Table 3): 24.2 µM | PBS Solubility ([2]; pH 7.4): <1.0 µM

CCOC(=O)N1C(=O)C2(CCCCC2)N(c2ccc(C(C)C)cc2)C1=S [compound 56604817]
Growth Inhibition Activity, IC50 (μM), C. albicans (n = 3) CaCi-2 (Candida albicans CaCi-2; Table 4): inactive | Growth Inhibition Activity, IC50 (μM), C. albicans (n = 3) CaCi-17 (Candida albicans CaCi-17; Table 4): inactive | IC50 ([1]; Table 4): 13.8 µM | PBS Solubility [2, 3]: <1.0 µM

CCOC(=O)N1C(=O)C2(CCOCC2)N(c2ccc(C)cc2)C1=S [compound 56604818]
IC50 (Candida albicans CaCi-2; Table 5): 20.6 µM | Growth Inhibition Activity, IC50 (μM), C. albicans (n = 3) CaCi-17 (Candida albicans CaCi-17; Table 5): inactive | Growth Inhibition Activity, IC50 (μM), 3T3 Fibroblasts (n = 1) ([1]; Table 5): Inactive | PBS Solubility ([2]; pH 7.4): 28.5 µM
